From ChEMBL document CHEMBL3739277, “Design, synthesis, and antibacterial evaluation of novel azolylthioether quinolones as MRSA DNA intercalators” (2015) come the findings set out here.

Format in all cases: functional
One assay deals with Cyberlindnera jadinii. The experiment in a line: Antifungal activity against Candida utilis ATCC9950 assessed as growth inhibition incubated at 35 degC for 24 hrs by micro broth dilution method. As to conditions: Williopsis jadinii, ATCC9950, 24 h. A general note: Broth dilution looks for growth in wells or tubes with falling amounts of substance.
A further assay concerns Aspergillus flavus. The experiment in a line: Antifungal activity against Aspergillus flavus ATCC204304 assessed as growth inhibition incubated at 35 degC for 24 hrs by micro broth dilution method. As to conditions: ATCC204304, 24 h.
The next assay relates to Saccharomyces cerevisiae. The experiment in a line: Antifungal activity against Saccharomyces cerevisiae ATCC9763 assessed as growth inhibition incubated at 35 degC for 24 hrs by micro broth dilution method. As to conditions: ATCC9763, 24 h.
Another assay has as its system Candida albicans. Put plainly: Antifungal activity against Candida albicans ATCC10231 assessed as growth inhibition incubated at 35 degC for 24 hrs by micro broth dilution method. The settings on record: ATCC10231, 24 h.
Assay [1] is described as follows: Antifungal activity against Candida mycoderma ATCC9888 assessed as growth inhibition incubated at 35 degC for 24 hrs by micro broth dilution method. The settings on record: Kregervanrija fluxuum.
Another assay deals with Micrococcus luteus. Put plainly: Antibacterial activity against Micrococcus luteus ATCC4698 assessed as growth inhibition incubated at 37 degC for 24 hrs by micro broth dilution method. The settings on record: ATCC4698, 24 h.
In assay [2] the test system is Staphylococcus aureus. The experiment in a line: Antibacterial activity against methicillin resistant Staphylococcus aureus N315 assessed as growth inhibition incubated at 37 degC for 24 hrs by micro broth dilution method. As to conditions: N315, 24 h.
In assay [3] the test system is Staphylococcus aureus. The experiment in a line: Antibacterial activity against Staphylococcus aureus ATCC25923 assessed as growth inhibition incubated at 37 degC for 24 hrs by micro broth dilution method. The settings on record: ATCC25923, 24 h.
For the next assay, the system named is Bacillus subtilis. The experiment in a line: Antibacterial activity against Bacillus subtilis ATCC6633 assessed as growth inhibition incubated at 37 degC for 24 hrs by micro broth dilution method. As to conditions: ATCC6633, 24 h.
In the next assay the test system is Pseudomonas aeruginosa. Put plainly: Antibacterial activity against Pseudomonas aeruginosa ATCC27853 assessed as growth inhibition incubated at 37 degC for 24 hrs by micro broth dilution method. The settings on record: ATCC27853, 24 h.
A further assay relates to Escherichia coli. Put plainly: Antibacterial activity against Escherichia coli JM109 assessed as growth inhibition incubated at 37 degC for 24 hrs by micro broth dilution method. As to conditions: JM109, 24 h.
The nature of assay [4]: Antibacterial activity against Eberthella typhosa ATCC14028 assessed as growth inhibition incubated at 37 degC for 24 hrs by micro broth dilution method. The settings on record: ATCC14028, 24 h.
Assay [5] can be described thus: Antibacterial activity against Bacillus proteus ATCC13315 assessed as growth inhibition incubated at 37 degC for 24 hrs by micro broth dilution method. As to conditions: ATCC13315, 24 h.

Values after ≈ are worked out from the molar mass of the structure shown.

On to `O=C(O)c1cn(C2CC2)c2c(Cl)c(N3CCC(NCC(O)CSc4ncn(Cc5ccc(Cl)cc5Cl)n4)C3)c(F)cc2c1=O` (configuration not stated), for which the MIC80 (commonly an inhibitory concentration at the 80% level, which refers to growth in some studies and to a panel of isolates in others) with Cyberlindnera jadinii is 16 µg/mL (≈ 23.5 µM); with Aspergillus flavus it was 64 µg/mL (≈ 93.8 µM); in the assay on Saccharomyces cerevisiae it was 64 µg/mL (≈ 93.8 µM); with Candida albicans, 16 µg/mL (≈ 23.5 µM); in assay [1] it was 4 µg/mL (≈ 5.87 µM). The MIC (as a rule, the smallest concentration in the dilution series that meets the test's criterion for growth inhibition) in the assay with Micrococcus luteus was 4 µg/mL (≈ 5.87 µM); with Staphylococcus aureus [2], 8 µg/mL (≈ 11.7 µM); with Staphylococcus aureus [3], 2 µg/mL (≈ 2.93 µM); with Bacillus subtilis it was 0.5 µg/mL (≈ 0.733 µM); in the assay on Pseudomonas aeruginosa, 1 µg/mL (≈ 1.47 µM); in the assay with Escherichia coli, 1 µg/mL (≈ 1.47 µM). Also, the MIC in [4] was 1 µg/mL (≈ 1.47 µM); in [5], 0.5 µg/mL (≈ 0.733 µM).
As for `O=C(O)c1cn(C2CC2)c2cc(N3CCNCC3)c(F)cc2c1=O` [CIPROFLOXACIN], the MIC (in the assay with Bacillus subtilis; with Pseudomonas aeruginosa; in assay [4]; in [5]) was 1 µg/mL (≈ 3.02 µM) each time.
`CCn1cc(C(=O)O)c(=O)c2cc(F)c(N3CCN(CC(O)CSc4nccn4C)CC3)cc21` (configuration not stated): the MIC80 in the assay with Cyberlindnera jadinii is 64 µg/mL (≈ 131 µM); in the assay on Aspergillus flavus it was 256 µg/mL (≈ 523 µM); in the assay on Saccharomyces cerevisiae it was 128 µg/mL (≈ 261 µM); in the assay on Candida albicans it was 16 µg/mL (≈ 32.7 µM); in assay [1], 64 µg/mL (≈ 131 µM). Besides, the MIC in the assay with Micrococcus luteus was 32 µg/mL (≈ 65.4 µM); with Staphylococcus aureus [2] it was 64 µg/mL (≈ 131 µM); in the assay with Staphylococcus aureus [3], 16 µg/mL (≈ 32.7 µM); in the assay with Bacillus subtilis, 16 µg/mL (≈ 32.7 µM); in the assay with Pseudomonas aeruginosa, 64 µg/mL (≈ 131 µM); with Escherichia coli, 8 µg/mL (≈ 16.3 µM). The MIC was 16 µg/mL (≈ 32.7 µM) in assay [4] and 64 µg/mL (≈ 131 µM) in assay [5].
On to `Cn1nnnc1SCC(O)CN1CCN(c2cc3c(cc2F)c(=O)c(C(=O)O)cn3C2CC2)CC1` (configuration not stated), for which the MIC80 is 256 µg/mL (≈ 508 µM) in the assay on Cyberlindnera jadinii; 8 µg/mL (≈ 15.9 µM) in the assay with Aspergillus flavus; 8 µg/mL (≈ 15.9 µM) in the assay on Saccharomyces cerevisiae; 8 µg/mL (≈ 15.9 µM) in the assay on Candida albicans; 16 µg/mL (≈ 31.8 µM) in assay [1]. In addition, the MIC with Micrococcus luteus came to 8 µg/mL (≈ 15.9 µM); in the assay with Bacillus subtilis, 8 µg/mL (≈ 15.9 µM); with Pseudomonas aeruginosa, 16 µg/mL (≈ 31.8 µM); in the assay on Escherichia coli it was 8 µg/mL (≈ 15.9 µM); in assay [5], 4 µg/mL (≈ 7.94 µM).
For `O=C(O)c1cn(C2CC2)c2cc(N3CCN(CC(O)CSc4ncn(Cc5ccc(Cl)c(Cl)c5)n4)CC3)c(F)cc2c1=O` (configuration not stated), the MIC80 in the assay with Cyberlindnera jadinii was determined as 2 µg/mL (≈ 3.09 µM); in the assay on Aspergillus flavus, 16 µg/mL (≈ 24.7 µM); in the assay on Saccharomyces cerevisiae, 32 µg/mL (≈ 49.4 µM); with Candida albicans it was 16 µg/mL (≈ 24.7 µM); in [1], 8 µg/mL (≈ 12.4 µM). Further, the MIC with Micrococcus luteus is 1 µg/mL (≈ 1.54 µM); in the assay on Staphylococcus aureus [2], 1 µg/mL (≈ 1.54 µM); in the assay on Staphylococcus aureus [3], 0.5 µg/mL (≈ 0.772 µM); in the assay with Bacillus subtilis, 0.5 µg/mL (≈ 0.772 µM); with Pseudomonas aeruginosa, 2 µg/mL (≈ 3.09 µM); in the assay on Escherichia coli it was 1 µg/mL (≈ 1.54 µM). The MIC in assay [4] and in [5] was 0.5 µg/mL (≈ 0.772 µM) in each case.
For `O=C(O)c1cn(C2CC2)c2cc(N3CCN(CC4CO4)CC3)c(F)cc2c1=O` (configuration not stated), the MIC80 with Cyberlindnera jadinii is 2 µg/mL (≈ 5.16 µM); in the assay with Aspergillus flavus, 1 µg/mL (≈ 2.58 µM); in the assay with Saccharomyces cerevisiae it was 1 µg/mL (≈ 2.58 µM); in the assay on Candida albicans, 2 µg/mL (≈ 5.16 µM); in assay [1], 1 µg/mL (≈ 2.58 µM). Besides, the MIC with Micrococcus luteus came out at 2 µg/mL (≈ 5.16 µM); in the assay with Staphylococcus aureus [2], 1 µg/mL (≈ 2.58 µM); in the assay with Staphylococcus aureus [3], 4 µg/mL (≈ 10.3 µM); in the assay on Bacillus subtilis, 8 µg/mL (≈ 20.6 µM); in the assay on Pseudomonas aeruginosa it was 2 µg/mL (≈ 5.16 µM); with Escherichia coli it was 1 µg/mL (≈ 2.58 µM). In addition, the MIC in assay [4] was determined as 2 µg/mL (≈ 5.16 µM); in assay [5], 4 µg/mL (≈ 10.3 µM).
With `O=C(O)c1cn(C2CC2)c2cc(N3CCN(CC(O)CSc4ncn(Cc5ccc(Cl)cc5Cl)n4)CC3)c(F)cc2c1=O` (configuration not stated), the MIC80 in the assay with Cyberlindnera jadinii is 4 µg/mL (≈ 6.18 µM); in the assay with Aspergillus flavus, 16 µg/mL (≈ 24.7 µM); in the assay with Saccharomyces cerevisiae it was 64 µg/mL (≈ 98.8 µM); in the assay on Candida albicans it was 32 µg/mL (≈ 49.4 µM); in assay [1], 16 µg/mL (≈ 24.7 µM). In addition, the minimum inhibitory concentration (MIC) amounted to 2 µg/mL (≈ 3.09 µM) in the assay on Micrococcus luteus; 1 µg/mL (≈ 1.54 µM) with Staphylococcus aureus [2]; 1 µg/mL (≈ 1.54 µM) in the assay on Staphylococcus aureus [3]; 2 µg/mL (≈ 3.09 µM) in the assay on Bacillus subtilis; 4 µg/mL (≈ 6.18 µM) in the assay on Pseudomonas aeruginosa; 2 µg/mL (≈ 3.09 µM) in the assay on Escherichia coli. For the same compound, the MIC was found to be 1 µg/mL (≈ 1.54 µM) in assay [4] and 2 µg/mL (≈ 3.09 µM) in assay [5].
`CCn1cc(C(=O)O)c(=O)c2cc(F)c(N3CCN(CC(O)CSc4nnnn4C)CC3)cc21` (configuration not stated): the MIC80 in the assay with Cyberlindnera jadinii turned out to be 64 µg/mL (≈ 130 µM); in the assay with Aspergillus flavus it was 64 µg/mL (≈ 130 µM); in the assay with Saccharomyces cerevisiae, 128 µg/mL (≈ 260 µM); in the assay with Candida albicans, 32 µg/mL (≈ 65.1 µM); in assay [1], 64 µg/mL (≈ 130 µM). The MIC in the assay with Micrococcus luteus was found to be 64 µg/mL (≈ 130 µM); in the assay on Staphylococcus aureus [2], 128 µg/mL (≈ 260 µM); in the assay on Staphylococcus aureus [3] it was 128 µg/mL (≈ 260 µM); in the assay on Bacillus subtilis, 32 µg/mL (≈ 65.1 µM); in the assay on Pseudomonas aeruginosa, 128 µg/mL (≈ 260 µM); in the assay with Escherichia coli it was 8 µg/mL (≈ 16.3 µM). Besides, the minimum inhibitory concentration (MIC) in assay [4] amounted to 32 µg/mL (≈ 65.1 µM); in assay [5], 128 µg/mL (≈ 260 µM).
